PubChem BioAssay AID488931 (Broad Institute, 2010)
Active and inactive are the calls of the source.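 Rule for the calls: active = rising protection curve whose AC50 sits at or below ten times the top dose tested for that sample; inconclusive = flat response between 30 and 70 percent, or poor fit; inactive = the rest.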

Columns and labels:
[1] = protection from cytokine-induced mitochondrial depolarization, dose response, cell-based, INS-1E, JC-1 fluorescence ratio, dry powder (AID 488931); conditions: INS-1E cytokine-induced mitochondrial depolarization, JC-1 ratio, 48 h; at 19.5 µM (top of the series)
[2] = system: INS-1E cytokine-induced mitochondrial depolarization, JC-1 ratio, 48 h; test: as above

Row | Structure (SMILES) | protection from depolarization [1] | AC50 [2]
1 | C[C@@H]1CN([C@@H](C)CO)C(=O)c2cccc(NC(=O)Nc3ccccc3)c2O[C@H]1CN(C)S(=O)(=O)c1ccc(F)cc1 | 11.5% (inactive) | –
2 | COc1ccc(S(=O)(=O)N(C)C[C@@H]2Oc3c(NC(=O)C4CCOCC4)cccc3C(=O)N([C@@H](C)CO)C[C@H]2C)cc1 | 0.344% (inactive) | –
3 | Cc1noc(C)c1NC(=O)N(C)C[C@@H]1Oc2c(NC(=O)Nc3cccc4ccccc34)cccc2C(=O)N([C@@H](C)CO)C[C@H]1C | 10.5% (inactive) | –
4 | COc1ccc(S(=O)(=O)N(C)C[C@@H]2Oc3c(NS(=O)(=O)c4ccc(C)cc4)cccc3C(=O)N([C@@H](C)CO)C[C@H]2C)cc1 | 2.95% (inactive) | –
5 | COc1ccc(S(=O)(=O)N(C)C[C@@H]2Oc3c(NS(C)(=O)=O)cccc3C(=O)N([C@@H](C)CO)C[C@H]2C)cc1 | -3.87% (inactive) | –
6 | COc1ccc(S(=O)(=O)N(C)C[C@@H]2Oc3c(NC(=O)c4cnccn4)cccc3C(=O)N([C@@H](C)CO)C[C@H]2C)cc1 | -0.183% (inactive) | –
7 | COc1ccc(S(=O)(=O)N(C)C[C@@H]2Oc3c(NC(=O)C4CC4)cccc3C(=O)N([C@@H](C)CO)C[C@H]2C)cc1 | 0.699% (inactive) | –
8 | C[C@H]1CN([C@@H](C)CO)C(=O)c2cccc(NC(=O)NC3CCCCC3)c2O[C@@H]1CN(C)S(C)(=O)=O | 4.62% (inactive) | –
9 | COc1ccc(NC(=O)N(C)C[C@@H]2Oc3c(NC(=O)Nc4cccc5ccccc45)cccc3C(=O)N([C@@H](C)CO)C[C@H]2C)cc1 | -6.82% (inactive) | –
10 | C[C@@H]1CN([C@H](C)CO)C(=O)c2cccc(NC(=O)Nc3ccccc3)c2O[C@H]1CN(C)S(=O)(=O)c1ccc(Cl)cc1 | 27.7% (inactive) | –
11 | COc1ccc(S(=O)(=O)N(C)C[C@@H]2Oc3c(NC(=O)c4ccc(-c5nccs5)cc4)cccc3C(=O)N([C@@H](C)CO)C[C@H]2C)cc1 | 3.72% (inactive) | –
12 | COc1ccc(S(=O)(=O)N(C)C[C@@H]2Oc3c(NC(=O)c4cc(C)nn4C)cccc3C(=O)N([C@@H](C)CO)C[C@H]2C)cc1 | -6.67% (inactive) | –
13 | Cc1ccc(S(=O)(=O)N(C)C[C@H]2Oc3c(NC(=O)Nc4cccc5ccccc45)cccc3C(=O)N([C@@H](C)CO)C[C@@H]2C)cc1 | -8.26% (inactive) | –
14 | C[C@@H]1CN([C@@H](C)CO)C(=O)c2cccc(NC(=O)Nc3cccc4ccccc34)c2O[C@H]1CN(C)C(=O)Nc1ccccc1 | -8.43% (inactive) | –
15 | COc1ccc(S(=O)(=O)N(C)C[C@@H]2Oc3c(NC(=O)NC4CCCCC4)cccc3C(=O)N([C@@H](C)CO)C[C@H]2C)cc1 | 16.4% (inactive) | –
16 | COc1ccc(NC(=O)Nc2cccc3c2O[C@@H](CN(C)S(=O)(=O)c2ccc(OC)cc2)[C@H](C)CN([C@@H](C)CO)C3=O)cc1 | -0.254% (inactive) | –
17 | C[C@@H]1CN([C@@H](C)CO)C(=O)c2cccc(NC(=O)Nc3cccc4ccccc34)c2O[C@H]1CN(C)S(=O)(=O)c1ccc2c(c1)OCCCO2 | 5.1% (inactive) | –
18 | C[C@@H]1CN([C@H](C)CO)C(=O)c2cccc(NC(=O)Nc3cccc4ccccc34)c2O[C@H]1CN(C)S(=O)(=O)c1ccc(Cl)cc1 | 20.7% (inactive) | –
19 | C[C@@H]1CN([C@@H](C)CO)C(=O)c2cccc(NC(=O)Nc3cccc4ccccc34)c2O[C@H]1CN(C)S(=O)(=O)c1cccc(F)c1 | -3.75% (inactive) | –

Row | Structure (SMILES) | protection from depolarization [1] | AC50 [2]
20 | C[C@@H]1CN([C@@H](C)CO)C(=O)c2cccc(NC(=O)Nc3cccc4ccccc34)c2O[C@H]1CN(C)S(=O)(=O)c1ccccc1F | -1.29% (inactive) | –
21 | C[C@@H]1CN([C@@H](C)CO)C(=O)c2cccc(NC(=O)Nc3cccc4ccccc34)c2O[C@H]1CN(C)C(=O)Nc1ccc(F)cc1 | -0.192% (inactive) | –
22 | C[C@@H]1CN([C@@H](C)CO)C(=O)c2cccc(NC(=O)Nc3cccc4ccccc34)c2O[C@H]1CN(C)S(=O)(=O)c1ccc2c(c1)OCCO2 | 19.2% (inactive) | –
23 | COc1ccc(S(=O)(=O)N(C)C[C@@H]2Oc3c(NC(=O)Nc4ccc(F)cc4)cccc3C(=O)N([C@H](C)CO)C[C@H]2C)cc1 | 10.6% (inactive) | –
24 | COc1ccc(S(=O)(=O)N(C)C[C@@H]2Oc3c(NC(=O)Nc4ccc(C(F)(F)F)cc4)cccc3C(=O)N([C@@H](C)CO)C[C@H]2C)cc1 | 12.6% (inactive) | –
25 | C[C@@H]1CN([C@@H](C)CO)C(=O)c2cccc(NC(=O)Nc3cccc4ccccc34)c2O[C@H]1CN(C)S(=O)(=O)c1ccc2c(c1)oc(=O)n2C | 23.7% (inactive) | –
26 | C[C@@H]1CN([C@@H](C)CO)C(=O)c2cccc(NC(=O)Nc3cccc4ccccc34)c2O[C@H]1CN(C)S(=O)(=O)c1cccs1 | -8.53% (inactive) | –
27 | C[C@@H]1CN([C@@H](C)CO)C(=O)c2cccc(NC(=O)Nc3cccc4ccccc34)c2O[C@H]1CN(C)C(=O)NC1CCCCC1 | -5.64% (inactive) | –
28 | COc1ccc(S(=O)(=O)N(C)C[C@@H]2Oc3c(NC(=O)c4nc5ccccc5s4)cccc3C(=O)N([C@@H](C)CO)C[C@H]2C)cc1 | -8.98% (inactive) | –
29 | C[C@@H]1CN([C@H](C)CO)C(=O)c2cccc(NC(=O)Nc3ccccc3)c2O[C@H]1CN(C)S(=O)(=O)c1ccc(F)cc1 | 3.73% (inactive) | –
30 | COc1ccc(S(=O)(=O)N(C)C[C@@H]2Oc3c(NC(=O)Nc4ccccc4)cccc3C(=O)N([C@H](C)CO)C[C@H]2C)cc1 | – | > 19.5 µM (inactive)
31 | COc1ccc(S(=O)(=O)N(C)C[C@@H]2Oc3c(NC(=O)Nc4cccc5ccccc45)cccc3C(=O)N([C@@H](C)CO)C[C@H]2C)c(OC)c1 | 9.11% (inactive) | –
32 | C[C@@H]1CN([C@@H](C)CO)C(=O)c2cccc(NC(=O)Nc3cccc4ccccc34)c2O[C@H]1CN(C)S(=O)(=O)c1cn(C)cn1 | -9.26% (inactive) | –
33 | COc1ccc(S(=O)(=O)N(C)C[C@@H]2Oc3c(NC(=O)c4cccc5ccccc45)cccc3C(=O)N([C@@H](C)CO)C[C@H]2C)cc1 | 5.96% (inactive) | –
34 | C[C@@H]1CN([C@@H](C)CO)C(=O)c2cccc(NS(=O)(=O)c3ccccc3)c2O[C@H]1CN(C)Cc1ccc(C(F)(F)F)cc1 | -0.0726% (inactive) | –
35 | C[C@@H]1CN([C@@H](C)CO)C(=O)c2cccc(NC(=O)Nc3cccc4ccccc34)c2O[C@H]1CN(C)CC1CC1 | 9.67% (inactive) | –
36 | COc1ccccc1S(=O)(=O)N(C)C[C@@H]1Oc2c(NC(=O)Nc3cccc4ccccc34)cccc2C(=O)N([C@@H](C)CO)C[C@H]1C | 4.59% (inactive) | –
37 | C[C@@H]1CN([C@@H](C)CO)C(=O)c2cccc(NC(=O)Nc3ccccc3)c2O[C@H]1CN(C)S(=O)(=O)c1ccc(Cl)cc1 | 18.7% (inactive) | –
38 | COc1ccc(S(=O)(=O)N(C)C[C@@H]2Oc3c(NS(=O)(=O)c4ccc(F)cc4)cccc3C(=O)N([C@@H](C)CO)C[C@H]2C)cc1 | 2.07% (inactive) | –

Row | Structure (SMILES) | protection from depolarization [1] | AC50 [2]
39 | COc1ccc(S(=O)(=O)N(C)C[C@@H]2Oc3c(NC(=O)Nc4cccc5ccccc45)cccc3C(=O)N([C@H](C)CO)C[C@@H]2C)cc1 | 2.53% (inactive) | –
40 | C[C@@H]1CN([C@@H](C)CO)C(=O)c2cccc(NC(=O)Nc3cccc4ccccc34)c2O[C@H]1CN(C)S(=O)(=O)c1ccc(OC(F)(F)F)cc1 | -17.1% (inactive) | –
41 | C[C@@H]1CN([C@@H](C)CO)C(=O)c2cccc(NC(=O)Nc3cccc4ccccc34)c2O[C@H]1CN(C)S(=O)(=O)c1ccccc1 | 12.8% (inactive) | –
42 | C[C@@H]1CN([C@@H](C)CO)C(=O)c2cccc(NC(=O)Nc3cccc4ccccc34)c2O[C@H]1CN(C)C(=O)Nc1ccc(C(F)(F)F)cc1 | -10.5% (inactive) | –
43 | CNC[C@@H]1Oc2c(NC(=O)Nc3cccc4ccccc34)cccc2C(=O)N([C@@H](C)CO)C[C@H]1C | 4.81% (inactive) | –
44 | COc1ccc(S(=O)(=O)N(C)C[C@H]2Oc3c(NC(=O)Nc4cccc5ccccc45)cccc3C(=O)N([C@H](C)CO)C[C@H]2C)cc1 | 7.31% (inactive) | –
45 | C[C@@H]1CN([C@@H](C)CO)C(=O)c2cccc(NC(=O)Nc3cccc4ccccc34)c2O[C@H]1CN(C)S(=O)(=O)c1ccc2c(c1)OCO2 | 14.5% (inactive) | –
46 | COc1ccc(S(=O)(=O)N(C)C[C@@H]2Oc3c(NC(=O)Nc4ccc(F)cc4)cccc3C(=O)N([C@@H](C)CO)C[C@H]2C)cc1 | 23.9% (inactive) | –
47 | COc1ccc(S(=O)(=O)N(C)C[C@@H]2Oc3c(cccc3N(C)C)C(=O)N([C@@H](C)CO)C[C@H]2C)cc1 | -3.81% (inactive) | –
48 | COc1ccc(S(=O)(=O)N(C)C[C@@H]2Oc3ccc(NC(=O)Nc4cccc5ccccc45)cc3C(=O)N([C@@H](C)CO)C[C@H]2C)cc1 | -7.17% (inactive) | –
49 | COc1ccc(S(=O)(=O)N(C)C[C@@H]2Oc3c(NC(=O)Nc4cccc5ccccc45)cccc3C(=O)N([C@@H](C)CO)C[C@H]2C)cc1 | 10.7% (inactive) | –
50 | C[C@@H]1CN([C@@H](C)CO)C(=O)c2cccc(NC(=O)Nc3cccc4ccccc34)c2O[C@H]1CN(C)S(=O)(=O)c1ccc(F)cc1 | 6.22% (inactive) | –
51 | COc1ccc(S(=O)(=O)N(C)C[C@@H]2Oc3c(NS(=O)(=O)c4ccccc4)cccc3C(=O)N([C@@H](C)CO)C[C@H]2C)cc1 | 7.15% (inactive) | –
52 | Cc1ccc(S(=O)(=O)N(C)C[C@@H]2Oc3c(NC(=O)Nc4ccc(F)cc4)cccc3C(=O)N([C@H](C)CO)C[C@H]2C)cc1 | 15.8% (inactive) | –
53 | COc1ccc(S(=O)(=O)N(C)C[C@@H]2Oc3c(NS(=O)(=O)c4ccc(Cl)cc4)cccc3C(=O)N([C@@H](C)CO)C[C@H]2C)cc1 | 3.44% (inactive) | –
54 | C[C@@H]1CN([C@@H](C)CO)C(=O)c2cccc(NC(=O)Nc3cccc4ccccc34)c2O[C@H]1CN(C)C(=O)Nc1ccc2c(c1)OCO2 | 0.627% (inactive) | –
55 | COc1ccc(S(=O)(=O)N(C)C[C@@H]2Oc3c(NS(=O)(=O)c4cn(C)cn4)cccc3C(=O)N([C@@H](C)CO)C[C@H]2C)cc1 | 1.64% (inactive) | –
56 | Cc1ccc(S(=O)(=O)N(C)C[C@@H]2Oc3c(NC(=O)Nc4cccc5ccccc45)cccc3C(=O)N([C@@H](C)CO)C[C@H]2C)cc1 | 13.7% (inactive) | –
